The record followed here is BindingDB's records for doi:10.7270/Q24X565S (The Scripps Research Institute Molecular Screening Center, 2007).

As usually defined, the IC50 is the midpoint of a concentration-inhibition curve. A lower IC50 goes with inhibition by little substance.

Counter-ions that a name gives are not always drawn.

In the first test the target is cAMP-dependent protein kinase catalytic subunit alpha (Homo sapiens, UniProt P17612). The test can be described thus: PKA catalytic subunit inhibitors, dose response, biochemical, Kinase-Glo luminescence, Kemptide substrate (AID 548).
Conditions: not given
A general note: Kinase-Glo reads ATP consumption through a luciferase reaction.
`c1ccc(CCCNc2[nH]cnc3ncnc2-3)cc1` had an IC50 of 39.5 µM.
Same read-out and setting: the result for `c1ccc(Cn2ncc3c2ncn2c(-c4ccncc4)nnc32)cc1` [7-Benzyl-3-pyridin-4-yl-7H-pyrazolo[4,3-e][1,2,4]triazolo[4,3-c]pyrimidine] reads over 19.9 µM; that for `O=NCc1c[nH]c2ccccc12` [MLS000104363], 34.4 µM; that for `Nc1c(S(=O)(=O)c2cccc(Cl)c2)c2c(n1N=CC1=CC(=O)C(=O)C=C1)Nc1ccccc1N2` [4-[[2-azanyl-3-(3-chlorophenyl)sulfonyl-4,9-dihydropyrrolo[3,2-b]quinoxalin-1-yl]iminomethyl]cyclohexa-3,5-diene-1,2-dione], over 59.6 µM.
Same read-out and setting: for `Fc1ccccc1N1CCN(c2ncnc3n[nH]cc23)CC1` [4-[4-(2-fluorophenyl)piperazin-1-yl]-1H-pyrazolo[3,4-d]pyrimidine] the value was 52.3 µM.
Same read-out and setting: the result for `Cc1ccc(S(=O)(=O)NCCSc2nnnn2-c2ccc(C(N)=O)cc2)cc1` [4-[5-[2-(tosylamino)ethylthio]tetrazol-1-yl]benzamide] reads 10.4 µM; that for `O=C(CCCOc1ccccc1)Nc1ccncc1` [4-Phenoxy-N-pyridin-4-yl-butyramide], over 59.6 µM; that for `c1ccc(Cn2ncc3c2ncn2nc(-c4ccncc4)nc32)cc1` [MLS000078634], over 19.9 µM.
Turning to `CCC1CCCCN1c1nc(-c2ccncc2)nc2ccccc12` (centres undefined) [4-(2-ethyl-1-piperidinyl)-2-pyridin-4-ylquinazoline], the IC50 was found to be 13.6 µM.
With `Cc1c2ccncc2c(C)c2c1[nH]c1ccccc12` [5,11-dimethyl-2H-pyrido[4,3-b]carbazole], the IC50 was 4.09 µM. Against the preceding compound, the IC50 is about 3.3-fold lower.
Same read-out and setting: the result for `CC(=O)n1cc(-c2ccncc2)c2ccccc21` [1-(3-pyridin-4-yl-1-indolyl)ethanone;hydrochloride] reads 45 µM; that for `C1=C(c2c[nH]c3ccccc23)CCNC1`, over 59.6 µM; that for `Cc1cc2ccccc2c(=O)n1CC(=O)Nc1ccc2c(c1)OCO2` [MLS000086255], over 59.6 µM.
With `Fc1cc2nc(-c3ccncc3)[nH]c2cc1F` [SMR000040673], the IC50 was over 59.6 µM.
The compound `Nc1nonc1-n1nncc1-c1ccccc1` [4-(5-phenyl-1,2,3-triazol-1-yl)-1,2,5-oxadiazol-3-amine] registered a concentration for half-maximal inhibition (IC50) of over 59.6 µM.
Still for that read-out and setting: the result for `Clc1ccc(OCCN2CCN(c3ncnc4sccc34)CC2)cc1` [4-[4-[2-(4-chloranylphenoxy)ethyl]piperazin-1-yl]thieno[2,3-d]pyrimidine] reads 59.2 µM; that for `Cc1ccc(SCc2nc(-c3ccncc3)no2)cc1` [4-(5-{[(4-methylphenyl)thio]methyl}-1,2,4-oxadiazol-3-yl)pyridine], over 59.6 µM; that for `c1nc(N2CCCC2)c2[nH]cnc2n1` [6-(1-pyrrolidinyl)-7H-purine], 35.6 µM.
In the case of `Nc1[nH]nc2nc(N3CCCC3)nc(-c3ccccc3)c12`, the IC50 is over 59.6 µM.
Still for that read-out and setting: the result for `COc1cc2c(cc1NC(=O)COC(=O)Cn1cnc3ccccc31)oc1ccccc12` [2-(1-benzimidazolyl)acetic acid [2-[(2-methoxy-3-dibenzofuranyl)amino]-2-oxoethyl] ester] reads 37.5 µM; that for `Cc1cccc(NC(=O)CSc2n[nH]c(-c3ccncc3)n2)c1` [N-(3-methylphenyl)-2-[(5-pyridin-4-yl-1H-1,2,4-triazol-3-yl)thio]acetamide], over 59.6 µM; that for `CCOc1ccc2nc3ccc4[nH]onc4c3c2c1` [SMR000111865], over 59.6 µM.
The same measure, in the same setting: for `CN(C(=O)COc1ccccc1)c1nnc(-c2ccncc2)s1` [MLS000075421] the value was over 59.6 µM; for `O=C(CSc1nnc(-c2ccncc2)[nH]1)c1ccccc1`, 24.6 µM.
Compound `c1nc(NC2CCCCC2)c2[nH]cnc2n1` [N-cyclohexyl-7H-purin-6-amine] yielded a half-inhibitory concentration (IC50) of 8.94 µM.
As for `CCN1CCN(Cc2nnnn2C(C)(C)C)CC1` [1-(1-tert-Butyl-1H-tetrazol-5-ylmethyl)-4-ethyl-piperazine], the half-inhibitory concentration (IC50) was over 59.6 µM.
The same measure, in the same setting: for `Cn1c(SCc2ccc(Br)cc2)nnc1-c1ccncc1` [4-[5-[(4-bromobenzyl)thio]-4-methyl-1,2,4-triazol-3-yl]pyridine] the value was over 59.6 µM.
As to `COc1ccc2c(Cl)c(C(N)=O)sc2c1` [3-Chloro-6-methoxy-benzo[b]thiophene-2-carboxylic acid amide], the IC50 was over 59.6 µM.
Same read-out and setting: the result for `c1ccc2c(-c3ccncc3)c[nH]c2c1` reads 11.3 µM.
As for `CCc1cc2c(O)ncnc2s1` [MLS000029626], the 50% inhibitory concentration (IC50) was over 59.6 µM.
`Cc1cc2c(ccc3[nH]onc32)n1` [MLS000038925] showed a half-inhibitory concentration (IC50) of 50.5 µM. This counts as double-digit micromolar.

Staying with this test, now noted: inactive by the depositor's call.
Take `CC1(C)Cc2c(c(-c3ccco3)nc3n[nH]c(N)c23)CO1` [SMR000045457]: the IC50 came to 70.1 µM.
As to `Fc1ccccc1Cn1nnc2c(-n3ccnc3)ncnc21` [3-(2-Fluoro-benzyl)-7-imidazol-1-yl-3H-[1,2,3]triazolo[4,5-d]pyrimidine], the 50% inhibitory concentration (IC50) was determined as 231 µM.
`NC(=O)c1sc2nc(N3CCCCC3)c3c(c2c1N)CCCC3` [1-amino-5-(1-piperidinyl)-6,7,8,9-tetrahydrothieno[2,3-c]isoquinoline-2-carboxamide] showed an IC50 of 358 µM.
